Reference: PubChem BioAssay AID1645865 (Buhrlage Lab, Dana-Farber Cancer Institute and Novartis …, 2021)
pIC50: −log10 of the molar value. Calls of active or inactive are those of the source.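 The calls were made as follows: active = maximal inhibition of the USP30 enzyme reaching 30% or more across the dose series; inactive = the rest.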

molecular target: Ubiquitin carboxyl-terminal hydrolase 30 (Homo sapiens) (UniProt Q70CQ3); assay: inhibitors of ubiquitin-specific protease 30 deubiquitylating enzyme, concentration dependence, in vitro biochemical, validation of primary hits (AID 1645865); conditions: purified USP30, Ub-rhodamine cleavage, fluorescence, 2 h
Sequence (Q70CQ3 whole entry, looked up): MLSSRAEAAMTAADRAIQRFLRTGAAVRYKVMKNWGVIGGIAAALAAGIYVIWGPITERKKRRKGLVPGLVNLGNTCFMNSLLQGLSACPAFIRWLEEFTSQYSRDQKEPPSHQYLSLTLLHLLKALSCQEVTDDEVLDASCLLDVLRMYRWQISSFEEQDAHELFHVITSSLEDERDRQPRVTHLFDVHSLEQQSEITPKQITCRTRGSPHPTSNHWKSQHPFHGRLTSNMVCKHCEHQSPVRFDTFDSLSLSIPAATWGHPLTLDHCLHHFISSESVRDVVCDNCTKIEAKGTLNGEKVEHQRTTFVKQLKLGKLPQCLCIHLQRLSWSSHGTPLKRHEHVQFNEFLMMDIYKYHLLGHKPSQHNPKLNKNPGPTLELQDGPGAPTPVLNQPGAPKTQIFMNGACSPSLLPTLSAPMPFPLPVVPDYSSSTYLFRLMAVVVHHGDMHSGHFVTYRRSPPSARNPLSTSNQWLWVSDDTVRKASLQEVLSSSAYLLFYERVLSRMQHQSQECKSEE

Row | Compound | pIC50 | IC50
1 | COc1ccc(NC(=O)CC(=O)c2ccc([N+](=O)[O-])cc2)cc1S(=O)(=O)Nc1ccc(Br)cc1 | 4.48 | 
2 | COc1ccc(CNC(=O)CSc2nc3nc(C)ccc3o2)cc1 | 4.71 | 
3 | Cc1cccc(CNC(=O)c2ccc(-c3nnc(-c4cccc(C)c4)o3)cc2)c1 | 5.25 | 
4 | CCN(CC)c1nc(F)c2c(c1F)S(=O)(=O)CCN2Cc1cccnc1 |  | > 50 µM (inactive)
5 | COc1cc2c(c3oc4cccc(O)c4c(=O)c13)C1C=COC1O2 (stereo unspecified) |  | > 50 µM (inactive)
6 | Cc1nc(-c2ccc3c(c2)nnn3CCN2CCOCC2)no1 |  | > 50 µM (inactive)
7 | Cc1ccc(OC(=O)c2cn(-c3ccccc3)nc2-c2cccnc2)cc1 |  | > 50 µM (inactive)
8 | COc1cccc2sc(N3CCN(c4nc5ccccc5s4)CC3)nc12 | 4.41 | 
9 | COc1cccc(CN2CCc3nc4nc(C)ccc4cc3C2)c1 |  | > 50 µM (inactive)
10 | CCCCc1nc2sc3c(NCCN4CCOCC4)ncnc3c2c2c1CCC2 |  | > 50 µM (inactive)
11 | CC1=C[C@@H](C)CC[C@H]2O[C@@H](C3=C(O)C(=O)C(C)=C4O[C@](O)(C=C43)[C@@H](C)C[C@H](C)C1)[C@H](C)[C@@H](O)[C@H]2C | 4.65 | 
12 | N#Cc1c(-c2cccs2)cc(-c2cccs2)[nH]c1=O |  | > 50 µM (inactive)
13 | COc1ccc2nc3c(cc2c1)c(=O)n(C)c1c3c(=O)n(-c2ccccc2)c(=O)n1-c1ccccc1 |  | > 50 µM (inactive)
14 | Cc1ccc2oc(=O)c(S(=O)(=O)N3CCCCC3)cc2c1 | 4.89 | 
15 | O=C(CNS(=O)(=O)c1ccc(F)cc1)N1CCCC(c2nnc3ccccn23)C1 (stereo unspecified) |  | > 50 µM (inactive)
16 | CSc1nc2ncn(CC(=O)Nc3cccc(Cl)c3)c(=O)c2s1 | 5.32 | 
17 | CN1C(=O)COc2ccc(NC(=O)c3cc(-c4ccccc4)on3)cc21 | 4.85 | 
18 | COc1ccc(NC(=O)c2cc(-c3cccnc3)n[nH]2)cc1Cl | 5.93 | 
19 | CCc1nc2c(NC(=O)Nc3cccc(C(=O)OC)c3)cccn2n1 |  | > 50 µM (inactive)
20 | CCOc1ccc(NC(=O)Cn2c(=O)n(CCC(=O)NCc3ccco3)c(=O)c3ccccc32)cc1 | 5.39 | 
21 | NC(=O)c1nnn(-c2ccc(NC(=O)c3ccc(F)c(F)c3)cc2)n1 | 4.82 | 
22 | Nc1ccc(F)c(NS(=O)(=O)c2ccccc2)c1 |  | > 50 µM (inactive)
23 | COc1ccc(CCNC(=O)c2cc(C3CC3)nc3c2cnn3C(C)C)cc1 |  | > 50 µM (inactive)
24 | c1ccc(-c2ccc(NCc3ccc4c(c3)OCO4)nn2)cc1 | 4.45 | 
25 | COCCCNC(=O)c1ccc(Cn2c(=O)c3ccccc3n(CC(=O)Nc3ccc(OC)cc3)c2=O)cc1 | 4.62 | 
26 | Cc1ccc(NC(=O)Cn2cc(S(=O)(=O)N3CCCC3)ccc2=O)cc1 | 4.69 | 

Row | Compound | pIC50 | IC50
27 | O=C(C(c1ccccc1)c1ccccc1)N1CCC(c2nc3c(nnn3Cc3c(F)cccc3Cl)c(=O)[nH]2)CC1 | 4.94 | 
28 | Cc1ccc(NC(=O)C2CCN(c3cncnc3N3CCCC3)CC2)cc1 |  | > 50 µM (inactive)
29 | O=C(O)c1ccc(C2Cc3c([nH]c(=O)[nH]c3=O)O2)cc1 (stereo unspecified) | 5.01 | 
30 | CCc1ccc(NC(=O)Cc2nnc3cc(-c4nc(C)no4)ccn23)cc1 | 5.62 | 
31 | COc1ccc(C)cc1NC(=O)CSc1nc(C)nc2c1oc1ccccc12 | 4.75 | 
32 | O=C(NCc1ccccc1Cl)c1ccc(-c2nnc(-c3ccccc3)o2)cc1 | 5.82 | 
33 | COc1ccc(CCn2cnc3c4ccccc4n(C)c3c2=O)cc1OC |  | > 50 µM (inactive)
34 | O=C(/C=C/c1ccc(F)cc1)N1CCC(Cc2ccccc2)CC1 | 4.38 | 
35 | Nc1c(-c2ccc(Cl)cc2)cnc2cc(-c3ccc(Cl)c(Cl)c3)nn12 | 5.83 | 
36 | Cc1cc(=O)n(CC(=O)Nc2ccccc2F)c(Nc2ccc(F)cc2)n1 | 4.85 | 
37 | CC(C)Cc1nc2oc3c(N(C)CCO)ncnc3c2c2c1CCC2 |  | > 50 µM (inactive)
38 | CCCc1nc2sc3c(NCCCN4CCOCC4)ncnc3c2c2c1CCC2 |  | > 50 µM (inactive)
39 | O=C(Nc1ccc(Cl)cc1)Nc1cccn2ncnc12 | 4.73 | 
40 | CC(=O)c1ccc(Cc2ncc(C(F)(F)F)cc2Cl)s1 |  | > 50 µM (inactive)
41 | NS(=O)(=O)c1ccc(CNS(=O)(=O)c2ccc(-c3ccccn3)s2)cc1 | 4.61 | 
42 | COc1ccc(CNC(=O)CCc2nc3sc4c(c3c(=O)[nH]2)CCCCC4)cc1 |  | > 50 µM (inactive)
43 | Cc1nnc(NCc2cccnc2)c2c1nnn2Cc1ccccc1Cl | 4.55 | 
44 | Cc1cc(C(=O)CSc2nc3ccccc3[nH]2)c(C)n1Cc1ccco1 |  | > 50 µM (inactive)
45 | COc1ccc(NS(=O)(=O)c2cc(NC(=O)CCc3nc4ccccc4s3)ccc2C)cc1 | 4.58 | 
46 | CCc1ccc2c(c1)[C@]1(C(=O)N2)[C@@H]2C(=O)N(c3ccc(Cl)cc3Cl)C(=O)[C@@H]2[C@@H]2CCCN21 |  | > 50 µM (inactive)
47 | CN1CCN(C(=O)c2ccn(-c3ccc4ccc(-c5cnn(C)c5)cn34)n2)CC1 |  | > 50 µM (inactive)
48 | COc1ccc(C(=O)Nc2ccccc2C(=O)NCc2ccccc2)cc1 | 4.52 | 
49 | Cc1ccc(-n2nc(C(=O)Nc3ccc(C)cn3)c3ncn(C)c(=O)c32)cc1 | 5.74 | 
50 | c1ccc(CCN2CCc3nc4cccnc4cc3C2)nc1 |  | > 50 µM (inactive)
51 | CCOC(=O)c1cc2c(ccn2C)n1Cc1cccc2ccccc12 |  | > 50 µM (inactive)
